Source: US20100184751A1, “HETEROCYCLIC COMPOUNDS FOR THE TREATMENT OF TUBERCULOSIS” (priority 2007, published 2010)
Structures can show the parent of a compound that is named as a salt. Where two headings read alike, the source gives them in different places.

System: Mycobacterium tuberculosis H37Rv
Experiment: Mycobacterium tuberculosis H37Rv inhibition assay (resazurin MIC)
Type: cell-based
Conditions: ATCC 25618 / H37Rv, read-out: MIC value
[1] = 144 h, H37Rv strain (ATCC25618), Middlebrook 7H9, 37° C., six days, resazurin fluorescence after 48 hours
[2] = H37Rv strain (ATCC25618), Middlebrook 7H9, 37° C., six days, resazurin fluorescence after 48 hours

Row | Compound | MIC [1] [µg/mL] | MIC [µg/mL] | MIC [2] [µg/mL] | MIC (144 h) [µg/mL]
1 | O=c1ccc2ncc(Cl)c3c2n1CC3(O)CN1CCC(NCc2cc3c(cn2)OCCC3)CC1 (racemic) [Example 13, (4R/S)-3-Chloro-4-({4-[(3,4-dihydro-2H-pyrano[2,3-c]pyridin-6-ylmethyl)amino]-1-piperidinyl}methyl)-4-hydroxy-4,5-dihydro-7H-pyrrolo[3,2,1-de]-1,5-naphthyridin-7-one Dihydrochloride] | ≤ 4 | – | – | –
2 | O=C1CSc2ccc(CNC3CCN(CC4(O)Cn5c(=O)ccc6ncc(Cl)c4c65)CC3)nc2N1 (racemic) [Example 14, (4R/S)-3-Chloro-4-hydroxy-4-[(4-{[(3-oxo-3,4-dihydro-2H-pyrido[3,2-b][1,4]thiazin-6-yl)methyl]amino}-1-piperidinyl)methyl]-4,5-dihydro-7H-pyrrolo[3,2,1-de]-1,5-naphthyridin-7-one Dihydrochloride] | ≤ 4 | ≤ 1.7 | – | –
3 | O=c1ccc2ncc(Cl)c3c2n1CC3(O)CN1CCC(NCc2cc3c(cn2)OCS3)CC1 (racemic) [Example 15, (4R/S)-3-Chloro-4-hydroxy-4-({4-[([1,3]oxathiolo[5,4-c]pyridin-6-ylmethyl)amino]-1-piperidinyl}methyl)-4,5-dihydro-7H-pyrrolo[3,2,1-de]-1,5-naphthyridin-7-one Dihydrochloride] | ≤ 4 | – | – | –
4 | O=c1ccc2ncc(F)c3c2n1C[C@@]3(O)CN1CCC(NCc2cc3c(cn2)OCCO3)CC1 [Example 1, (4S)-4-({4-[(2,3-Dihydro[1,4]dioxino[2,3-c]pyridin-7-ylmethyl)amino]-1-piperidinyl}methyl)-3-fluoro-4-hydroxy-4,5-dihydro-7H-pyrrolo[3,2,1-de]-1,5-naphthyridin-7-one (E1 Enantiomer Series) Hydrochloride] | ≤ 4 | – | – | –
5 | O=c1ccc2ncc(F)c3c2n1C[C@@]3(O)CN1CCC(NCc2ccc3c(c2)OCCO3)CC1 [Example 3A, (4S)-4-({4-[(2,3-Dihydro-1,4-benzodioxin-6-ylmethyl)amino]-1-piperidinyl}methyl)-3-fluoro-4-hydroxy-4,5-dihydro-7H-pyrrolo[3,2,1-de]-1,5-naphthyridin-7-one (E1 Enantiomer Series) Dihydrochloride] | ≤ 4 | – | ≤ 1.7 | –
6 | O=C1CSc2ccc(CNC3CCN(C[C@]4(O)Cn5c(=O)ccc6ncc(F)c4c65)CC3)nc2N1 [Example 6, (4S)-3-Fluoro-4-hydroxy-4-[(4-{[(3-oxo-3,4-dihydro-2H-pyrido[3,2-b][1,4]thiazin-6-yl)methyl]amino}-1-piperidinyl)methyl]-4,5-dihydro-7H-pyrrolo[3,2,1-de]-1,5-naphthyridin-7-one (E1 Enantiomer Series) Dihydrochloride] | ≤ 4 | – | ≤ 1.7 | –
7 | O=c1ccc2ncc(F)c3c2n1C[C@@]3(O)CN1CCC(NCc2cc3c(cn2)OCCS3)CC1 [Example 8A, (4S)-4-({4-[(2,3-Dihydro[1,4]oxathiino[2,3-c]pyridin-7-ylmethyl)amino]-1-piperidinyl}methyl)-3-fluoro-4-hydroxy-4,5-dihydro-7H-pyrrolo[3,2,1-de]-1,5-naphthyridin-7-one (E1 Enantiomer Series) Dihydrochloride] | ≤ 4 | – | ≤ 1.7 | –
8 | O=c1ccc2ncc(F)c3c2n1C[C@@]3(O)CN1CCC(NCc2cc3c(cn2)OCS3)CC1 [Example 10B, (4S)-3-Fluoro-4-hydroxy-4-({4-[([1,3]oxathiolo[5,4-c]pyridin-6-ylmethyl)amino]-1-piperidinyl}methyl)-4,5-dihydro-7H-pyrrolo[3,2,1-de]-1,5-naphthyridin-7-one (E1 enantiomer series) hydrochloride] | ≤ 4 | – | ≤ 1.7 | –
9 | O=c1ccc2ncc(F)c3c2n1C[C@@]3(O)CN1CCC(NCc2cc3c(nn2)SCCO3)CC1 [Example 19, (4S)-4-({4-[(6,7-Dihydro[1,4]oxathiino[3,2-c]pyridazin-3-ylmethyl)amino]-1-piperidinyl}methyl)-3-fluoro-4-hydroxy-4,5-dihydro-7H-pyrrolo[3,2,1-de]-1,5-naphthyridin-7-one (E1 Enantiomer Series) Dihydrochloride] | ≤ 4 | – | ≤ 1.7 | –
10 | O=c1c(F)cc2ncc(F)c3c2n1C[C@@]3(O)CN1CCC(NCc2cc3c(cn2)OCCO3)CC1 [Example 20A, (4S)-4-({4-[(2,3-Dihydro[1,4]dioxino[2,3-c]pyridin-7-ylmethyl)amino]-1-piperidinyl}methyl)-3,8-difluoro-4-hydroxy-4,5-dihydro-7H-pyrrolo[3,2,1-de]-1,5-naphthyridin-7-one (E1 enantiomer series)] | ≤ 4 | – | – | –
11 | O=c1ccc2ncc(F)c3c2n1C[C@@]3(O)CN1CCC(NCc2cc3c(cn2)SCCO3)CC1 [Example 23A, Dihydrochloride] | ≤ 4 | – | ≤ 1.7 | –
12 | O=c1ccc2ncc(F)c3c2n1CC3(F)CN1CCC(NCc2cc3c(cn2)OCCO3)CC1 (stereo not drawn) [Example 26B, 4-({4-[(2,3-Dihydro[1,4]dioxino[2,3-c]pyridin-7-ylmethyl)amino]-1-piperidinyl}methyl)-3,4-difluoro-4,5-dihydro-7H-pyrrolo[3,2,1-de]-1,5-naphthyridin-7-one Dihydrochloride(E1 Enantiomer)] | – | – | – | ≤ 4
13 | O=C1COc2ccc(CNC3CCN(CC4(F)Cn5c(=O)ccc6ncc(F)c4c65)CC3)nc2N1 (stereo not drawn) [Example 32, 3,4-Difluoro-4-[(4-{[(3-oxo-3,4-dihydro-2H-pyrido[3,2-b][1,4]oxazin-6-yl)methyl]amino}-1-piperidinyl)methyl]-4,5-dihydro-7H-pyrrolo[3,2,1-de]-1,5-naphthyridin-7-one Dihydrochloride (E1 Enantiomer)] | – | ≤ 1.7 | – | ≤ 4
14 | O=c1ccc2ncc(F)c3c2n1CC3(F)CN1CCC(NCc2cc3c(nn2)OCCC3)CC1 (stereo not drawn) [Example 33, 4-({4-[(6,7-Dihydro-5H-pyrano[2,3-c]pyridazin-3-ylmethyl)amino]-1-piperidinyl}methyl)-3,4-difluoro-4,5-dihydro-7H-pyrrolo[3,2,1-de]-1,5-naphthyridin-7-one Dihyclrochloride (E1 Enantiomer)] | ≤ 4 | – | – | –
15 | O=c1ccc2ncc(F)c3c2n1C[C@@]3(O)CN1CCC(NCc2ccc3nsnc3c2)CC1 [Example 35, (4S)-4-({4-[(2,1,3-benzothiadiazol-5-ylmethyl)amino]-1-piperidinyl}methyl)-3-fluoro-4-hydroxy-4,5-dihydro-7H-pyrrolo[3,2,1-de]-1,5-naphthyridin-7-one] | ≤ 4 | – | ≤ 1.7 | –
16 | O=c1ccc2ncc(F)c3c2n1C[C@@]3(O)CN1CCC(NCc2cc3ccccc3cn2)CC1 [Example 36, (4S)-3-fluoro-4-hydroxy-4-({4-[(3-isoquinolinylmethyl)amino]-1-piperidinyl}methyl)-4,5-dihydro-7H-pyrrolo[3,2,1-de]-1,5-naphthyridin-7-one] | ≤ 4 | – | – | –
17 | O=c1ccc2ncc(F)c3c2n1C[C@@]3(O)CN1CCC(NCc2cnc3ccccc3c2)CC1 [Example 37, (4S)-3-fluoro-4-hydroxy-4-({4-[(3-quinolinylmethyl)amino]-1-piperidinyl}methyl)-4,5-dihydro-7H-pyrrolo[3,2,1-de]-1,5-naphthyridin-7-one] | ≤ 4 | – | ≤ 1.7 | –
18 | O=C1COc2cc(Cl)c(CNC3CCN(C[C@]4(O)Cn5c(=O)ccc6ncc(F)c4c65)CC3)nc2N1 [Example 40, (4S)-4-[(4-{[(7-chloro-3-oxo-3,4-dihydro-2H-pyrido[3,2-b][1,4]oxazin-6-yl)methyl]amino}-1-piperidinyl)methyl]-3-fluoro-4-hydroxy-4,5-dihydro-7H-pyrrolo[3,2,1-de]-1,5-naphthyridin-7-one] | ≤ 4 | – | ≤ 1.7 | –
19 | N#Cc1cc(CNC2CCN(C[C@]3(O)Cn4c(=O)ccc5ncc(F)c3c54)CC2)cc2c1OCC2 [Example 41, 5-{[(1-{[(4S)-3-fluoro-4-hydroxy-7-oxo-4,5-dihydro-7H-pyrrolo[3,2,1-de]-1,5-naphthyridin-4-yl]methyl}-4-piperidinyl)amino]methyl}-2,3-dihydro-1-benzofuran-7-carbonitrile] | ≤ 4 | – | ≤ 1.7 | –
20 | O=c1ccc2ncc(F)c3c2n1C[C@@]3(O)CN1CCC(NCc2ccc3scnc3c2)CC1 [Example 42, (4S)-4-({4-[(1,3-benzothiazol-5-ylmethyl)amino]-1-piperidinyl}methyl)-3-fluoro-4-hydroxy-4,5-dihydro-7H-pyrrolo[3,2,1-de]-1,5-naphthyridin-7-one] | ≤ 4 | – | – | –
21 | O=c1ccc2ncc(F)c3c2n1C[C@@]3(O)CN1CCC(NCc2ccc3snnc3c2)CC1 [Example 46, (4S)-4-({4-[(1,2,3-benzothiadiazol-5-ylmethyl)amino]-1-piperidinyl}methyl)-3-fluoro-4-hydroxy-4,5-dihydro-7H-pyrrolo[3,2,1-de]-1,5-naphthyridin-7-one] | ≤ 4 | – | ≤ 1.7 | –
22 | O=c1ccc2ncc(F)c3c2n1C[C@@]3(O)CN1CCC(NCc2ccc3nonc3c2)CC1 [Example 48, (4S)-4-({4-[(2,1,3-benzoxadiazol-5-ylmethyl)amino]-1-piperidinyl}methyl)-3-fluoro-4-hydroxy-4,5-dihydro-7H-pyrrolo[3,2,1-de]-1,5-naphthyridin-7-one] | ≤ 4 | – | ≤ 1.7 | –
23 | O=c1ccc2ncc(F)c3c2n1C[C@@]3(O)CN1CCC(NCc2ccc3cccc(O)c3n2)CC1 [Example 49, (4S)-3-fluoro-4-hydroxy-4-[(4-{[(8-hydroxy-2-quinolinyl)methyl]amino}-1-piperidinyl)methyl]-4,5-dihydro-7H-pyrrolo[3,2,1-de]-1,5-naphthyridin-7-one] | ≤ 4 | – | – | –
24 | O=c1ccc2ncc(F)c3c2n1C[C@@]3(O)CN1CCC(NCc2ccc3ccccc3n2)CC1 [Example 51, (4S)-3-fluoro-4-hydroxy-4-({4-[(2-quinolinylmethyl)amino]-1-piperidinyl}methyl)-4,5-dihydro-7H-pyrrolo[3,2,1-de]-1,5-naphthyridin-7-one] | ≤ 4 | – | – | –
